According to patent publication US20180133221A1, “ADMINISTRATION OF UBIQUITIN-ACTIVATING ENZYME INHIBITOR AND CHEMOTHERAPEUTIC AGENTS” (Millennium Pharmaceuticals, Inc., priority 2014, published 2018):
Where two headings read alike, the source gives them in different places.

Assays:
[1] = system: PHTX-17C colorectal carcinoma xenograft; format: in vivo; settings: for Tumor Volume Day 21: in mm³ (unit assumed)
Source text: The PHTX-17C colorectal carcinoma xenograft model was established from a patient-derived tumor collected during surgery from a person with moderately differentiated adenocarcinoma.PHTX-17C tumor fragments (approximately 2×2×3 mm^3) were implanted into the subcutaneous space in the right dorsal flank of female nude mice (age 5-7 weeks, Balb/c Nude Mice, Shanghai SINO-British SIPPR/BK Lab Animal Ltd, Shanghai, China) using a 13-gauge trocar. When the mean tumor volume reached approximately 185 mm^3, the animals were randomized into 12 treatment groups (n=5/group).
(§1) Oxaliplatin (Jiang Su Geng Rui Pharmaceuticals, Inc.) is formulated in 0.9% saline and administered by IP injection once weekly (QW) at 7.5 or 12.5 mg/kg. The once weekly schedule is also described as every 7 days (Q7D).
(§2) Compound 1 [((1R,2R,3S,4R)-2,3-dihydroxy-4-(2-(3-(trifluoromethylthio)-phenyl)pyrazolo[1,5-a]pyrimidin-7-ylamino)cyclopentyl)methyl sulfamate] is formulated in 10-20% HPbCD in sterile water and administered intravenously (IV) or subcutaneously (SC) on a BIW (twice/week schedule; Monday and Thursday or Tuesday and Friday) for either 2-4 weeks.
(§3) Tumors were measured twice weekly using vernier calipers. Tumor volumes were calculated using the standard formula V=W^2×L/2,). When mean tumor volumes reached approximately 200 mm^3 for PHTX-24C, 220 mm^3 for PHTX-Lu132, 150 mm^3 for CTG-0256, 260 mm^3 for CTG-0486, 185 mm^3 for PHTX-17C, 260 mm^3 for CTG-0165, 150 mm^3 for PHTX-14B in the study of Compound 1 and paclitaxel, 180 mm^3 for PHTX-14B in the study of Compound 1 and docetaxel, 200 mm^3 for SKOV-3, 220 mm^3 for PHTX-02B in the study of Compound 1 and docetaxel, 250 mm^3 for PHTX-02B in the study of Compound 1 and paclitaxel, 195 mm^3 for CTG-0159, 180 mm^3 for CTG-0012 or 150 mm^3 for Calu-6, mice were randomized into groups of n=5-7/arm as described in the tables below, and injected with vehicle, Compound 1 or agents (docetaxel, paclitaxel, oxaliplatin, cisplatin or carboplatin), or the combination of Compound 1 plus one of the agents, at various doses and schedules as described in tables below. Tumor size and body weight were measured approximately twice a week for the duration of the study. Mice are euthanized when their tumor volume reached 10% of their body weight, or when the average tumor volume of a treatment or control group reached approximately 2000 mm^3. Tumor growth continued to be monitored after the dosing period in some studies. Average tumor volume is reported as a function of time for selected arms of selected studies in the Figures.
(§4) Measurements from day 0 to day 14, day 19, day 21, or day 28 are analyzed as specified in Tables below. All tumor volumes have a value of 1 added to them before log10 transformation. For each animal, the log tumor volume at day 0 is subtracted from the log tumor volume on the subsequent days. This difference vs. time is used to calculate an area under the curve (AUC) for each animal using the trapezoid rule. […] The synergy score for the combination of agents A and B is defined as
(§5) 100*(mean(AUCAB)−mean(AUCA)−mean(AUCB)+mean(AUCctl))/mean(AUCctl):
(§6) where AUCAB, AUCA, AUCB, and AUCctl are the AUC values for animals in the combination group, the A group, the B group, and the control group, respectively. The standard error of the synergy score is computed based on the variation in the AUC values among the animals. […] If the P-value is above 0.05, then the combination is considered to be additive. If the P-value is below 0.05, and the synergy score is less than zero, then the combination is considered to be synergistic.

PHTX-24C colon xenograft = assay: PHTX-24C xenograft model, Compound 1 and oxaliplatin; format: in vivo, CB-17 SCID mice
Experimental: as §1, §2, §3, §4, §5
where AUCAB, AUCA, AUCB, and AUCctl are the AUC values for animals in the combination group, the A group, the B group, and the control group, respectively. […]

[2] = system: CTG-0486 human ovarian xenograft; format: in vivo
Source text: The CTG-0486 model of human ovarian xenograft model was established from a patient-derived tumor collected during surgery from a person with ovarian cancer (serous adenocarcinoma, metastases to the small bowel). CTG-0486 tumor fragments (approximately 2×2×3 mm^3) are implanted into the subcutaneous space in the right dorsal flank of female Mus musculus/nu/nu mice (age 6-9 weeks, Harlan Laboratories, Madison, Wis., USA) using a 13-gauge trocar needle. When the mean tumor volume reached approximately 260 mm3, the animals were randomized into 8 treatment groups (n=5/group).
[…] The once weekly schedule is also described as every 7 days (Q7D).
as §2, §3, §4, §5, §6

[3] = system: CTG-0256 human ovarian xenograft; assay: CTG-0256 xenograft model, Compound 1 and carboplatin; format: in vivo, Mus musculus/nu/nu mice
Source text: The CTG-0256 model of human ovarian xenograft model was established from a patient-derived tumor collected during surgery at primary site from a person with ovarian cancer (serous adenocarcinoma with resistant response to carboplatin or paclitaxel). CTG-0256 tumor fragments (approximately 2×2×3 mm^3) were implanted into the subcutaneous space in the right dorsal flank of female Mus musculus/nu/nu mice (age 6-9 weeks, Harlan Laboratories, Madison, Wis.) using a 13-gauge trocar. When the mean tumor volume reached approximately 150 mm^3, the animals were randomized into 7 treatment groups (n=7/group).
(§7) Carboplatin (Teva Pharmaceuticals) is formulated in 0.9% saline and administered by IP injection once weekly (QW) at 25, 50, 60, and 75 mg/kg. The once weekly schedule is also described as every 7 days (Q7D).
as §2, §3, §4, §5, §6

[4] = system: SKOV-3 ovarian cell-line derived xenograft; assay: SKOV-3 xenograft model, Compound 1 and carboplatin; format: in vivo, nude mice; settings: for Tumor Volume Day 14: in mm³ (unit assumed)
Experimental: SKOV-3 is an ovarian cell-line derived xenograft. Ten week old female nude mice (Taconic Farms, Inc) were inoculated subcutaneously in flank (cell suspension) with 4.0×10^6 SKOV-3 cells suspended in serum free DMEM+Matrigel. When the mean tumor volume reached approximately 200 mm^3, the animals were randomized into 12 treatment groups (n=5/group).
as §7, §2, §3, §4, §5, §6

[5] = system: PHTX-132Lu non-small cell lung xenograft
Source text: The PHTX-132Lu non-small cell lung xenograft model was established from a patient-derived tumor collected during surgery from a person with lung cancer (Poorly Differentiated Adenocarcinoma). PHTX-132Lu tumor fragments (approximately 2×2×3 mm^3) are implanted into the subcutaneous space in the right dorsal flank of female CB-17 SCID mice (age 10 weeks, Charles River Laboratory, Wilmington, Mass.) using a 13-gauge trocar. When the mean tumor volume reached approximately 220 mm^3, the animals were randomized into 12 treatment groups (n=5/group).
as §7, §2, §3, §4, §5, §6

[6] = system: CTG-0165 human lung NSCLC xenograft; assay: CTG-0165 xenograft model, Compound 1 and cisplatin; format: in vivo, Mus musculus/nu/nu mice
Experimental: CTG-0165 tumor fragments (approximately 2×2×3 mm^3) were implanted into the subcutaneous space in the right dorsal flank of female Mus musculus/nu/nu mice (age 6-9 weeks, Harlan Laboratories, Madison, Wis., USA) using a 13-gauge trocar. When the mean tumor volume reached approximately 260 mm^3, the animals were randomized into 8 treatment groups (n=5/group).
Cisplatin (Teva Pharmaceuticals) is formulated in 0.9% saline and administered by IV injection once weekly (QW) at 7.5 mg/kg. The once weekly schedule is also described as every 7 days (Q7D).
as §2, §3, §4, §5, §6

[7] = system: PHTX-14B breast xenograft; assay: PHTX-14B xenograft model, Compound 1 and docetaxel; format: in vivo, nude mice; settings: for Tumor Volume Day 28: in mm³ (unit assumed)
Experimental: (§8) Docetaxel (Henry Schein, Inc., Pittsburgh Pa.) is formulated in 0.9% saline and administered by intravenous injection (IV) once weekly (QW) at 5 mg/kg or 10 mg/kg. […] Tumors were measured twice weekly using vernier calipers.

[8] = system: Calu-6 non-small cell lung cancer xenograft; assay: Calu-6 xenograft model, Compound 1 and docetaxel; format: in vivo, nude mice; settings: for Tumor Volume Day 21: in mm³ (unit assumed)
Experimental: Calu-6 is a non-small cell lung cancer cell-lined derived xenograft model. Nine week old female nude mice (Taconic Farms, Inc) were inoculated subcutaneously in the flank (cell suspension) with 4.0×10^6 Calu-6 cells suspended in serum free MEM. […] Docetaxel (Henry Schein, Inc., Pittsburgh Pa.) is formulated in 0.9% saline and administered by intravenous injection (IV) once weekly (QW) at 5 mg/kg or 10 mg/kg. […] Tumors were measured twice weekly using vernier calipers.

[9] = system: CTG-0159 human lung NSCLC xenograft; assay: CTG-0159 xenograft model, Compound 1 and docetaxel; format: in vivo, Mus musculus/nu/nu mice; settings: 10 mg/kg docetaxel QWx3 IV; in mm³ (unit assumed)
Experimental: as §8

[10] = system: PHTX-02B breast xenograft; assay: PHTX-02B xenograft model, Compound 1 and docetaxel; format: in vivo, SCID-NOD mice; settings: for Tumor Volume Day 21: in mm³ (unit assumed)
Experimental: as §8

[11] = system: CTG-0012 human primary triple negative breast cancer model; assay: CTG-0012 xenograft model, Compound 1 and paclitaxel; format: in vivo, Mus musculus/nu/nu mice
Experimental: (§9) Paclitaxel (Bristol-Myers Squibb Company) is formulated in 0.9% saline and administered by intravenous injection (IV) on every 4 days (Q4D) or once weekly (QW) at 10 and 20 mg/kg. […] Tumors were measured twice weekly using vernier calipers.

[12] = system: PHTX-14B breast xenograft; assay: PHTX-14B xenograft model, Compound 1 and paclitaxel; format: in vivo, Balb/c Nude Mice; settings: for Tumor Volume Day 28: in mm³ (unit assumed)
Experimental: as §9

[13] = system: PHTX-02B breast xenograft; assay: PHTX-02B xenograft model, Compound 1 and paclitaxel; format: in vivo, SCID-NOD mice; settings: for Tumor Volume Day 19: in mm³ (unit assumed)
Experimental: as §9

[14] = single agent docetaxel 5 and 10 mg/kg IV QW
[15] = single agent paclitaxel IV at 10 mg/kg Q4D for 3 weeks

O=C1[O][Pt]2([NH][C@@H]3CCCC[C@H]3[NH]2)[O]C1=O [oxaliplatin, reference compound]
Tumor Volume Day 21 ([1]; 7.5 mg/kg oxaliplatin Q7Dx3 IP): 2017.5 | Tumor Volume Day 21 ([1]; 12.5 mg/kg oxaliplatin Q7Dx3 IP): 1758.9 | anti-tumor activity compared to vehicle control ([1]; single agent oxaliplatin IP at 7.5 or 12.5 mg/kg Q7D): modest anti-tumor activity | Tumor Volume Day 21 (PHTX-24C colon xenograft; 7.5 mg/kg oxaliplatin Q7Dx2 IP, in mm³ (unit assumed)): 720.6 | anti-tumor activity compared to vehicle control (PHTX-24C colon xenograft; single agent oxaliplatin 7.5 mg/kg IP Q7D): modest anti-tumor activity

N.N.O=C([O-])C1(C(=O)[O-])CCC1.[Pt+2] [carboplatin, reference compound]
Tumor Volume Day 21 ([2]; 60 mg/kg carboplatin Q7Dx3 IV, in mm³ (unit assumed)): 400.6 | anti-tumor activity compared to vehicle control ([2]; single agent carboplatin IP at 60 mg/kg Q7D for 3 weeks): modest to strong anti-tumor activity | Volume Tumor Day 14 ([3]; 50 mg/kg carboplatin Q7Dx2 IP, in mm³ (unit assumed)): 1898.1 | anti-tumor activity compared to vehicle control ([3]; single agent carboplatin IP at 50 mg/kg Q7D): modest to weak anti-tumor activity | Tumor Volume Day 14 ([4]; 25 mg/kg carboplatin Q7Dx2 IP): 932.8 | Tumor Volume Day 14 ([4]; 75 mg/kg carboplatin Q7Dx2 IP): 798.5 | anti-tumor activity compared to vehicle control ([4]; single agent carboplatin 25 and 75 mg/kg IP Q7D): modest anti-tumor activity | Tumor Volume Day 21 ([5]; 25 mg/kg carboplatin Q7Dx3 IP, in mm³ (unit assumed)): 727 | tolerability ([5]; 75 mg/kg carboplatin Q7D×3 as single agent (study group 2)): not tolerated | anti-tumor activity compared to vehicle control ([5]; single agent carboplatin 25 mg/kg IP Q7D): modest anti-tumor activity

N.N.[Cl][Pt][Cl] [cisplatin, reference compound]
Tumor Volume Day 21 ([6]; 7.5 mg/kg cisplatin QWx3 IV, in mm³ (unit assumed)): 489.3 | anti-tumor activity compared to vehicle control ([6]; single agent cisplatin 7.5 mg/kg Q7D): modest to weak anti-tumor activity

CC(=O)O[C@@]12CO[C@@H]1C[C@H](O)[C@@]1(C)C(=O)[C@H](O)C3=C(C)[C@@H](OC(=O)[C@H](O)[C@@H](NC(=O)OC(C)(C)C)c4ccccc4)C[C@@](O)([C@@H](OC(=O)c4ccccc4)[C@H]21)C3(C)C [docetaxel, reference compound]
Tumor Volume Day 28 ([7]; 5 mg/kg docetaxel Q7Dx3 IV): 590.4 | Tumor Volume Day 28 ([7]; 10 mg/kg docetaxel Q7Dx3 IV): 195.5 | tumor growth compared to the vehicle control group [7, 14]: inhibited tumor growth | Tumor Volume Day 21 ([8]; 5 mg/kg docetaxel Q7Dx3 IV): 743.7 | Tumor Volume Day 21 ([8]; 10 mg/kg docetaxel Q7Dx3 IV): 882.6 | anti-tumor responses compared to the vehicle control [8, 14]: modest anti-tumor responses | Tumor Volume Day 21 [9]: 103.2 | Tumor Volume Day 21 ([10]; 5 mg/kg docetaxel Q7Dx3 IV): 492.3 | Tumor Volume Day 21 ([10]; 10 mg/kg docetaxel Q7Dx3 IV): 232.2 | tumor growth compared to the vehicle control group [10, 14]: inhibited tumor growth

CC(=O)O[C@H]1C(=O)[C@@]2(C)[C@H]([C@H](OC(=O)c3ccccc3)[C@]3(O)C[C@H](OC(=O)[C@H](O)[C@@H](NC(=O)c4ccccc4)c4ccccc4)C(C)=C1C3(C)C)[C@]1(OC(C)=O)CO[C@@H]1C[C@@H]2O [paclitaxel, reference compound]
Tumor Volume Day 21 ([11]; 10 mg/kg paclitaxel Q4Dx3 IV, in mm³ (unit assumed)): 731.1 | anti-tumor activity compared to vehicle control [11, 15]: modest to strong anti-tumor activity | Tumor Volume Day 28 ([12]; 10 mg/kg paclitaxel Q7Dx4 IV): 584.4 | Tumor Volume Day 28 ([12]; 20 mg/kg paclitaxel Q7Dx4 IV): 283.6 | anti-tumor activity ([12]; paclitaxel 20 mg/kg IV Q7D for 4 weeks): strong anti-tumor activity | anti-tumor activity compared to vehicle control ([12]; single agent paclitaxel 10 mg/kg IV Q7D for 4 weeks): modest anti-tumor activity | Tumor Volume Day 19 ([13]; 10 mg/kg paclitaxel Q4Dx3 IV): 1093.5 | Tumor Volume Day 19 ([13]; 20 mg/kg paclitaxel Q4Dx3 IV): 245.2 | anti-tumor activity ([13]; paclitaxel IV at 20 mg/kg Q4D for 3 weeks): strong anti-tumor activity | anti-tumor activity compared to vehicle control [13, 15]: minimal to modest anti-tumor activity
